Measured values reported in PubChem BioAssay (NCI).
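Values below derive from 48-hour exposures of cells grown in 96-well plates, with endpoints linearly interpolated between the two concentrations bracketing the appropriate inhibition level. TGI: total growth inhibition.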 Active and inactive are the calls of the source. No stated cut-off is given here; in the data, active means GI50 below about 0.43 µM; inactive means the rest.

Experiments:
Assay in all cases: NCI tumour cell line growth inhibition, 48 h
[1] = test system: 786-0 renal
[2] = test system: U251 CNS
[3] = test system: HT29 colon
[4] = test system: SNB-19 CNS
[5] = test system: TK-10 renal
[6] = test system: SNB-75 CNS
[7] = test system: SK-MEL-28 melanoma
[8] = test system: IGROV1 ovarian
[9] = test system: MALME-3M melanoma
[10] = test system: CAKI-1 renal
[11] = test system: NCI-H226 lung
[12] = test system: SF-268 CNS
[13] = test system: ACHN renal
[14] = test system: XF 498 CNS
[15] = test system: NCI-H522 lung
[16] = test system: HOP-92 NSCLC
[17] = test system: NCI-H23 lung
[18] = test system: UACC-62 melanoma
[19] = test system: SW-620 colon
[20] = test system: CCRF-CEM leukemia
[21] = test system: SNB-78 CNS
[22] = test system: LOX IMVI melanoma
[23] = test system: M19-MEL melanoma
[24] = test system: SF-295 CNS
[25] = test system: M14 melanoma
[26] = test system: UO-31 renal
[27] = test system: RPMI-8226 leukemia
[28] = test system: SK-MEL-2 melanoma
[29] = test system: DMS 273 small cell lung
[30] = test system: SR leukemia
[31] = test system: DLD-1 colon
[32] = test system: LXFL 529 NSCLC
[33] = test system: SF-539 CNS
[34] = test system: KM20L2 colon
[35] = test system: SK-OV-3 ovarian
[36] = test system: MOLT-4 leukemia
[37] = test system: RXF-631 renal
[38] = test system: SN12C renal
[39] = test system: UACC-257 melanoma
[40] = test system: EKVX NSCLC
[41] = test system: HL-60(TB) leukemia
[42] = test system: K-562 leukemia
[43] = test system: KM12 colon
[44] = test system: HCT-116 colon
[45] = test system: OVCAR-3 ovarian
[46] = test system: A549 NSCLC
[47] = test system: HOP-62 NSCLC
[48] = test system: OVCAR-4 ovarian
[49] = test system: OVCAR-8 ovarian
[50] = test system: HCC-2998 colon
[51] = test system: HCT-15 colon
[52] = test system: NCI-H460 lung
[53] = test system: SK-MEL-5 melanoma
[54] = test system: A498 renal
[55] = test system: HOP-18 NSCLC
[56] = test system: OVCAR-5 ovarian
[57] = test system: RXF 393 renal

`N/N=C1\C(=O)N(CCc2ccccc2)C(=O)C1C(=O)NCCc1ccccc1` (centres undefined) showed a TGI [1] greater than 100 µM, a TGI [2] greater than 100 µM and a TGI [3] greater than 100 µM. It also gave a TGI [4] greater than 100 µM, a TGI [5] greater than 100 µM and a TGI [6] greater than 100 µM. The TGI [7] was greater than 100 µM, the TGI [8] was greater than 100 µM and the TGI [9] was greater than 100 µM. For the same molecule, the TGI [10] was greater than 100 µM, the TGI [11] was greater than 100 µM and the TGI [12] was greater than 100 µM. For the same molecule, the TGI [13] was greater than 100 µM, the TGI [14] was greater than 100 µM and the TGI [15] was greater than 100 µM. For the same molecule, the TGI [16] was greater than 100 µM, the TGI [17] was greater than 100 µM and the TGI [18] was greater than 100 µM. The TGI [19] was greater than 100 µM, the TGI [20] was greater than 100 µM and the TGI [21] was greater than 100 µM. It also gave a TGI [22] greater than 100 µM, a TGI [23] greater than 100 µM and a TGI [24] greater than 100 µM. It also gave a TGI [25] greater than 100 µM, a TGI [26] greater than 100 µM and a TGI [27] greater than 100 µM. The TGI [28] was greater than 100 µM, the TGI [29] was greater than 100 µM and the TGI [30] was greater than 100 µM. For the same molecule, the TGI [31] was greater than 100 µM, the TGI [32] was greater than 100 µM and the TGI [33] was greater than 100 µM. It also gave a TGI [34] greater than 100 µM, a TGI [35] greater than 100 µM and a TGI [36] greater than 100 µM. The TGI [37] was greater than 100 µM, the TGI [38] was greater than 100 µM and the TGI [39] was greater than 100 µM. It also gave a TGI [40] greater than 100 µM, a TGI [41] greater than 100 µM and a TGI [42] greater than 100 µM. The TGI [43] was greater than 100 µM, the TGI [44] was greater than 100 µM and the TGI [45] was greater than 100 µM. The TGI [46] was greater than 100 µM.
Work on `C/C(=N\NC(=O)CC#N)c1c(O)cc(C)oc1=O` yielded a TGI [1] greater than 100 µM, a TGI [2] greater than 100 µM and a TGI [3] greater than 100 µM. The TGI [4] was greater than 100 µM, the TGI [5] was greater than 100 µM and the TGI [6] was greater than 100 µM. The TGI [47] was greater than 100 µM, the TGI [48] was greater than 100 µM and the TGI [7] was greater than 100 µM. The TGI [8] was greater than 100 µM, the TGI [9] was greater than 100 µM and the TGI [10] was greater than 100 µM. For the same molecule, the TGI [11] was greater than 100 µM, the TGI [49] was greater than 100 µM and the TGI [12] was greater than 100 µM. It also gave a TGI [13] greater than 100 µM, a TGI [16] greater than 100 µM and a TGI [50] greater than 100 µM. The TGI [17] was greater than 100 µM, the TGI [51] was greater than 100 µM and the TGI [18] was greater than 100 µM. The TGI [19] was greater than 100 µM, the TGI [20] was greater than 100 µM and the TGI [21] was greater than 100 µM. It also gave a TGI [52] greater than 100 µM, a TGI [22] greater than 100 µM and a TGI [23] greater than 100 µM. For the same molecule, the TGI [24] was greater than 100 µM, the TGI [25] was greater than 100 µM and the TGI [53] was greater than 100 µM. For the same molecule, the TGI [26] was greater than 100 µM, the TGI [28] was greater than 100 µM and the TGI [30] was greater than 100 µM. The TGI [31] was greater than 100 µM, the TGI [32] was greater than 100 µM and the TGI [33] was greater than 100 µM. It also gave a TGI [34] greater than 100 µM, a TGI [35] greater than 100 µM and a TGI [36] greater than 100 µM. For the same molecule, the TGI [37] was greater than 100 µM, the TGI [38] was greater than 100 µM and the TGI [54] was greater than 100 µM. It also gave a TGI [39] greater than 100 µM, a TGI [40] greater than 100 µM and a TGI [41] greater than 100 µM. The TGI [55] was greater than 100 µM, the TGI [42] was greater than 100 µM and the TGI [43] was greater than 100 µM. The TGI [44] was greater than 100 µM and the TGI [46] was greater than 100 µM.
In the case of `c1c2c(cc(-n3nnc4c3CCCCCC4)c1-n1nnc3c1CCCCCC3)CCCCCC2`, the outcome [1] is reported as “inactive”, the TGI [2] is reported as 22.4 µM and the TGI [3] is reported as 19.8 µM. For the same molecule, the TGI [4] was 28.4 µM, the TGI [5] was 25.4 µM and the TGI [6] was 32.1 µM. It also gave a TGI [47] of 39 µM, a TGI [7] of 33.9 µM and a TGI [8] of 41.2 µM. The TGI [10] was 7.17 µM, the TGI [11] was 41.6 µM and the TGI [49] was 38.7 µM. The TGI [12] was 23.8 µM, the TGI [13] was 20.9 µM and the TGI [14] was 9.62 µM. The TGI [15] was 1.85 µM, the TGI [56] was 30 µM and the TGI [16] was 12.6 µM. The TGI [50] was 29.5 µM, the TGI [51] was 19 µM and the TGI [18] was 26.7 µM. It also gave a TGI [19] of 27.4 µM, a TGI [20] of 27.3 µM and a TGI [21] of 39.4 µM. For the same molecule, the TGI [52] was 18.9 µM, the TGI [22] was 26.6 µM and the TGI [23] was 25.5 µM. The TGI [24] was 25.3 µM, the TGI [25] was 32.8 µM and the TGI [53] was 24.7 µM. For the same molecule, the TGI [26] was 18.9 µM, the TGI [28] was 34.6 µM and the TGI [29] was 12.3 µM. The TGI [57] was 21.6 µM, the outcome [33] was “inactive” and the TGI [35] was 34.5 µM. For the same molecule, the TGI [36] was 11 µM, the TGI [37] was 34.8 µM and the TGI [38] was 24.4 µM. The TGI [54] was 22.2 µM, the TGI [39] was 32.9 µM and the TGI [40] was 23.6 µM. The TGI [41] was greater than 100 µM, the TGI [42] was 40.6 µM and the TGI [43] was 25.8 µM. For the same molecule, the TGI [44] was 21.6 µM, the TGI [45] was 64.8 µM and the outcome [46] was “inactive”.
`FC(F)(F)c1cc(C2SCc3nc4ccccc4n32)cc(C(F)(F)F)c1` (centres undefined) gave a TGI [1] greater than 100 µM, a TGI [3] greater than 100 µM and a TGI [4] greater than 100 µM. It also gave a TGI [5] greater than 100 µM, a TGI [47] greater than 100 µM and a TGI [48] greater than 100 µM. The TGI [8] was greater than 100 µM, the TGI [9] was greater than 100 µM and the TGI [10] was greater than 100 µM. The TGI [11] was greater than 100 µM, the TGI [49] was greater than 100 µM and the TGI [12] was greater than 100 µM. It also gave a TGI [13] greater than 100 µM, a TGI [14] of 35.6 µM and a TGI [56] greater than 100 µM. The TGI [16] was greater than 100 µM, the TGI [18] was greater than 100 µM and the TGI [20] was greater than 100 µM. It also gave a TGI [21] greater than 100 µM, a TGI [24] greater than 100 µM and a TGI [26] greater than 100 µM. For the same molecule, the TGI [29] was greater than 100 µM, the TGI [57] was greater than 100 µM and the TGI [32] was greater than 100 µM. It also gave a TGI [33] greater than 100 µM, a TGI [34] greater than 100 µM and a TGI [35] greater than 100 µM. It also gave a TGI [36] greater than 100 µM, a TGI [37] greater than 100 µM and a TGI [38] greater than 100 µM. It also gave a TGI [54] greater than 100 µM, a TGI [39] greater than 100 µM and a TGI [41] greater than 100 µM. The TGI [42] was greater than 100 µM and the TGI [43] was greater than 100 µM.
